# Experimental data as given in patent US9669141B2, “Tissue-engineered pumps and valves and uses thereof” (President and Fellows of Harvard College, priority 2012, dated 2017).
# System: Jellyfish swimming muscle
# Assay: Excitation-contraction uncoupling of jellyfish swimming muscle during optical mapping
# Format: in vivo, Aurelia aurita
# Conditions: juvenile jellyfish, artificial seawater at room temperature
# Procedure: PMDS-coated glass cover slips with cardiomyocyte monolayers of medusoid muscle architecture were assayed in a custom-made optical mapping system (FIGS. 7i-o) by adapting previously described protocols. Briefly, the cultures were incubated for 5 minutes in 8 μM RH-237 voltage-sensitive dye (Iex/Iem in DMSO=˜550/˜800 nm; Molecular Probes) in Tyrode's solution, then washed with Tyrode's solution. During recording, the tissue was placed in Tyrode's solution containing 10 μM excitation-contraction uncoupler blebbistatin, thereby minimizing motion artifacts. All solutions were maintained at 35-37° C. A platinum point electrode connected to a Grass S48 stimulator (Grass technologies, West Warwick, R.I. 02893, USA) was placed ˜1 mm above the culture surface (FIG. 7i) and used to apply point stimuli (2 Hz, 5-8 V, 10-ms duration). Imaging was performed using an inverted microscope (Zeiss Axiovert 200; Carl Zeiss MicroImaging, LLC Thornwood, N.Y. 10594, USA) equipped with a 40× Plan-Neofluar (1.3 NA) oil-immersion objective, a fluorescence light source (Hamamatsu L2422 100 Watt Mercury-Xenon lamp) and a filter cube appropriate for RH237 imaging (Zeiss EX BP530-585, DC FT600, EM LP615). Fluorescence shutter opening and closing was synchronized with the pacing stimulus. Membrane voltage signals were optically recorded at 5 Hz using a honeycomb of 124 independent optical fibers, each monitoring an approximately circular field of view of 25 μm in diameter (FIGS. 6j and 6k) and each connected to a discrete photodiode transimpedance amplifier. The outputs of the photodiode amplifiers were digitized by a bank of differential amplifiers and DAQ cards (National Instruments Corporation, Austin, Tex. 78759, USA). Digitized signals were processed using custom-made software implemented in MATLAB (MathWorks, Natick, Mass. 01760, USA) (FIG. 7l). Activation times, defined as the time point of maximum positive slope of the action potential, served to calculate isochronal maps of activation and velocity vector fields across the field of view monitored by the LED array (FIGS. 7m and 7o).
# Optical mapping in jellyfish (FIG. 7a-7h) was performed as in medusoid coverslips except for the following differences. All procedures were carried out in artificial seawater at room temperature (KENT Marine Sea Salt, KENT Marine Sea, 5401 West Oakwood Park Drive, Franklin, Wis. 53132). […] Thus, to constrain movement, an additional cover slip was placed on top of the jellyfish using vacuum grease as a spacer. […] Subsequently, activation times, isochronal maps and velocity vector fields were calculated as above (FIGS. 7e-7h).
row,Structure (SMILES),sensitivity of jellyfish swimming muscle to excitation-contraction uncoupling agents
1,Cc1ccc2c(c1)C(=O)C1(O)CCN(c3ccccc3)C1=N2 (stereo not shown) [blebbistatin],insensitive
2,"CC(=O)C(C)=NO [2,3-butanedione monoxime (BDM), 2,3-butanedione monoxime]",insensitive
3,C=C1[C@@H](C)[C@H]2[C@H](Cc3ccccc3)NC(=O)[C@]23[C@H](OC(C)=O)/C=C/[C@@](C)(O)C(=O)[C@@H](C)C/C=C/[C@H]3[C@@H]1O [cytochalasin D],insensitive
4,O=C1CN(/N=C/c2ccc(-c3ccc([N+](=O)[O-])cc3)o2)C(O)=N1 [dantrolene sodium],insensitive
